# Experiments:
# [1] = system: Pancreatic CSCs; assay: gene expression by qRT-PCR; type: cell-based, human
# Experimental: FIG. 19 is a graph showing the regulation by rottlerin of cMyc, Nanog, Oct-4, and Sox-2 in pancreatic CSCs. Pancreatic CSCs were treated with rottlerin (0-1 μM) for 24 h. The expression of Nanog, Sox-2 and cMyc was measured by qRT-PCR and normalized to GAPDH.
# (A) Pancreatic CSCs were treated with rottlerin (0-1 μM) for 24 h. The expression of Patched-1, Smo and Gli-2 was measured by qRT-PCR. […] (B) Pancreatic CSCs were transduced with Gli-responsive GFP/firefly luciferase viral particles (pGreen Fire1-Gli with EF1, System Biosciences). After transduction, culture medium was replaced and CSCs were treated with rottlerin (0-2 μM) for 24 h. Gli-responsive reporter activity was measured using a luciferase assay (Promega Corporation).
# (A and B) Induction of apoptosis and activation of caspase-3/-7. Pancreatic CSCs were treated with rottlerin (0-2 μM) for 48 h, and apoptosis and caspase-3/-7 activity were measured by […] and colorometric assay, respectively. […] (C) Pancreatic CSCs were treated with rottlerin (0-1 μM) for 48 h, and the expression of Bcl-2, XIAP and Survivin was measured by qRT-PCR and normalized to GAPDH.
# (A and B) Pancreatic CSCs were treated with rottlerin (0-1 μM) for 24 h. The expression of Zeb-1 and Slug was measured by the qRT-PCR and normalized to GAPDH. […] (C) In vitro Matrigel invasion assay. CSCs were plated onto the Matrigel-coated membrane in the top chamber of the transwell and treated with rottlerin (0-2 μM) for 48 h. Cells invaded to the lower chamber were fixed with methanol, stained with crystal violet and photo micrographed.
# (A) Regulation of caspase-3/7 activity by EGCG. CSCs were treated with EGCG (0-60 μM) for 24 h, and caspase-3/7 activity was measured as per manufacturer's instructions. […] (B) Regulation of apoptosis by EGCG. CSCs were treated with EGCG (0-60 μM) for 48 h, and apoptosis was measured by TUNEL assay. […] (C) Regulation of apoptosis-related proteins. Pancreatic CSCs were treated with EGCG (0-60 μM) for 36 h. Real time PCR (q-RT-PCR) was performed to examine the expression of Bcl-2, survivin, XIAP, and GAPDH.
# […] At the end of incubation period, cells were harvested and the expression of Nanog, Sox-2, c-Myc and Oct-4 was measured by the q-RT-PCR. […] (B) Nanog shRNA enhances the inhibitory effects of EGCG on CSC's spheroid viability. Pancreatic CSCs were transduced with either scrambled shRNA or Nanog shRNA expressing lentiviral vector (pLKO.1), and cell lysates were collected and western blot analysis was performed using anti-Nanog antibody (data not shown). CSC/scrambled and CSC/Nanog shRNA were seeded as described above and treated with EGCG (0-60 μM). After 7 days, spheroids were collected and cell suspensions were prepared and viable cells were counted by trypan blue assay.
# FIG. 40A and FIG. 40C are graphs and photographs showing the inhibition of components of sonic hedgehog pathway, Gli transcription and nuclear translocation by EGCG. (A) Inhibition of components of sonic hedgehog pathway and Gli transcription. Pancreatic CSCs were treated with EGCG (0-60 μM) for 36 h. The expression of Smothened (Smo), patched 1 (PTCH1), patched 2 (PTCH2), was measured by q-RT-PCR. […] (B) Inhibition of Gli1 and Gli2 expression and Gli transcription. Pancreatic CSCs were treated with EGCG (0-60 μM) for 36 h. The expression of Gli1 and Gli2 was measured by q-RT-PCR. Gli reporter activity. CSCs were transduced with Gli-responsive GFP/firefly luciferase viral particles (pGreen Fire1-Gli with EF1, System Biosciences). After transduction, culture medium was replaced and CSCs were treated with EGCG (0-60 μM) for 24 h. Gli-responsive reporter activity was measured by luciferase assay (Promega Corporation). […] (C) EGCG inhibits nuclear translocation of Gli1 and Gli2. Pancreatic CSCs were treated with or without EGCG (40 or 60 μM) for 24 h. At the end of incubation period, CSCs were fixed with paraformaldehyde, permeabilized with titron X100, and blocked with 5% normal goat serum. […]
# [2] = system: Pancreatic CSCs; assay: spheroid formation and cell viability in spheroids (trypan blue); type: cell-based, human; conditions: SFN 0-10 μM with or without quercetin 20 μM, 7 days
# [3] = qRT-PCR, rottlerin 0-1 μM, 24 h
# [4] = qRT-PCR, rottlerin 0-1 μM, 48 h
structure (smiles),measurement,setting,value
"O=C(O[C@@H]1Cc2c(O)cc(O)cc2O[C@@H]1c1cc(O)c(O)c(O)c1)c1cc(O)c(O)c(O)c1 [EGCG, epigallocatechin gallate]",expression of Bcl-2,"[1]; q-RT-PCR, EGCG 0-60 μM, 36 h",inhibited the expression
same,expression of Gli1,"[1]; q-RT-PCR, EGCG 0-60 μM, 36 h",inhibited the expression
same,expression of Gli2,"[1]; q-RT-PCR, EGCG 0-60 μM, 36 h",inhibited the expression
same,expression of Nanog,"[1]; q-RT-PCR, EGCG 0-60 μM, 36 h",inhibited the expression
same,expression of Oct-4,"[1]; q-RT-PCR, EGCG 0-60 μM, 36 h",inhibited the expression
same,expression of Patched-1,"[1]; q-RT-PCR, EGCG 0-60 μM, 36 h",inhibited the expression
same,expression of Patched-2,"[1]; q-RT-PCR, EGCG 0-60 μM, 36 h",inhibited the expression
same,expression of Sox-2,"[1]; q-RT-PCR, EGCG 0-60 μM, 36 h",no effect on the expression
same,expression of XIAP,"[1]; q-RT-PCR, EGCG 0-60 μM, 36 h",inhibited the expression
same,expression of c-Myc,"[1]; q-RT-PCR, EGCG 0-60 μM, 36 h",inhibited the expression
same,expression of smoothened (SMO),"[1]; q-RT-PCR, EGCG 0-60 μM, 36 h",inhibited the expression
same,expression of survivin,"[1]; q-RT-PCR, EGCG 0-60 μM, 36 h",inhibited the expression
same,expression of Slug,"[1]; q-RT-PCR, EGCG 0-60 μM, 48 h",inhibited the expression
same,expression of Snail,"[1]; q-RT-PCR, EGCG 0-60 μM, 48 h",inhibited the expression
same,expression of ZEB1,"[1]; q-RT-PCR, EGCG 0-60 μM, 48 h",inhibited the expression
O=c1c(O)c(-c2ccc(O)c(O)c2)oc2cc(O)cc(O)c12 [quercetin],cell viability in spheroids,[2],effective alone
CC(=O)c1c(O)c(C)c(O)c(Cc2c(O)c3c(c(C(=O)/C=C/c4ccccc4)c2O)OC(C)(C)C=C3)c1O [rottlerin],expression of Gli2,[1]; [3],inhibited the expression
same,expression of Nanog,[1]; [3],inhibited the expression
same,expression of Patched-1,[1]; [3],inhibited the expression
same,expression of Slug,[1]; [3],inhibited the expression
same,expression of Smo,[1]; [3],inhibited the expression
same,expression of Sox-2,[1]; [3],inhibited the expression
same,expression of Zeb-1,[1]; [3],inhibited the expression
same,expression of cMyc,[1]; [3],inhibited the expression
same,expression of Bcl-2,[1]; [4],inhibited the expression
same,expression of XIAP,[1]; [4],inhibited the expression
same,expression of survivin,[1]; [4],inhibited the expression
C[S+]([O-])CCCCN=C=S (stereo not shown) [sulforaphane],cell viability in spheroids,[2],inhibited the cell viability and colony formation of pancreatic CSCs in a dose-dependent manner
